Publication PMC12442245, “Activity Analysis of the P2X Receptor Antagonist PPADS against Signal Transducer and Activator of Transcription Proteins” (Chembiochem, 2025)
Several values for one entry are separate records, joined by “and”; a condition that tells them apart may be missing. Identical values can stand only once.

Columns and labels:
STAT4 = target: T1, STAT4 (Homo sapiens, UniProt Q14765); assay: CETSA, STAT4 in total cell lysates from NK-92 cells; format: binding; settings: NK-92 cell lysates, 100 μM compound
T1 sequence (Q14765 1-748): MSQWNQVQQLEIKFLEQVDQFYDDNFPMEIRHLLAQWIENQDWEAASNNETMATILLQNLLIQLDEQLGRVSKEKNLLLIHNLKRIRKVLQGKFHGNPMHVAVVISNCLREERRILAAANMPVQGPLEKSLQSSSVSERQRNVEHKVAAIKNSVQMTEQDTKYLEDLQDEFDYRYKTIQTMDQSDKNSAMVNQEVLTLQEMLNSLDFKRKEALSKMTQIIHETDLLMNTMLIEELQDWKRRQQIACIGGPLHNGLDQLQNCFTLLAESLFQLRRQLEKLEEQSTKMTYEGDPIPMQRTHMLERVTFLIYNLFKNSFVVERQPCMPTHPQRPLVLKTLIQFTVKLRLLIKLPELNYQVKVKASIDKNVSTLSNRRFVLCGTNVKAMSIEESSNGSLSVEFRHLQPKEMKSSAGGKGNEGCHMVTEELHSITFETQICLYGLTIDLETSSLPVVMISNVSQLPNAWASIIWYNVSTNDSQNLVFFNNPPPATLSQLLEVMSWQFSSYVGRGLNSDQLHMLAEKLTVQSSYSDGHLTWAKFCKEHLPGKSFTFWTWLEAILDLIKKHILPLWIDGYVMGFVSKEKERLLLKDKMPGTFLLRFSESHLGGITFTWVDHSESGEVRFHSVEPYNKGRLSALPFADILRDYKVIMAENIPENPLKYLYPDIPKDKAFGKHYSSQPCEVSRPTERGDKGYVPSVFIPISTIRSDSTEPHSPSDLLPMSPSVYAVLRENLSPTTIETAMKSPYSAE
Protocol: One method by which binding of small molecules to their expected targets in cell lysates can be inferred is the cellular thermal shift assay (CETSA).^[ [23], [24] ^] This assay is based on the observation that reversible protein binding by a small molecule typically stabilizes the bound protein against thermal denaturation. […]
NK-92 cells (DSMZ) were cultured in α-MEM containing 12.5% fetal bovine serum, 12.5% horse serum, 2 mM L-glutamine, penicillin/streptomycin antibiotics and 50 U/ml human recombinant IL-2 (all reagents from Gibco at Thermo Fisher). […]
whole-cell lysates, cells were harvested by centrifugation, washed once with ice-cold PBS and resuspended at 3 x 10^6 cells per 100 µl in TBS supplemented with EDTA-free Halt Protease Inhibitor Cocktail (Fisher Scientific). […]
(§1) CETSA experiments were performed based on the published protocol.[8] […] The soluble fractions were analyzed by Western blotting.
(§2) Treated lysates were separated by SDS-PAGE on a 10% gel and transferred to nitrocellulose membrane using a TransBlot semi-dry blotting protocol (Bio-Rad Laboratories). Proteins of interest were detected using monoclonal rabbit primary antibodies (Cell Signaling), anti-rabbit-HRP-secondary antibody (Dako) and Pierce ECL Plus chemiluminescence reagent (Thermo Fisher). Bands were visualized using an ImageQuant system (GE Healthcare) and quantitated with ImageJ software (NIH).[9]

STAT3 = STAT3 (Homo sapiens, UniProt P40763); assay: CETSA, STAT3 in total cell lysates from NK-92 cells; format: binding; design: the endogenous full‐length proteins (between 748 and 793 amino acids for STAT3/4/5a/5b); endogenous in cells; host or cells: NK-92 cells (DSMZ), whole-cell lysate; settings: NK-92 cell lysates, 100 μM
From the text: STAT3 was again chosen as a specificity control for CETSA analysis, because it had already been used as control in HTRF assays (Figure 2B), and because we had previously developed CETSA for STAT3 in NK‐92 lysates.^[ [11] ^] […] The relatively low thermal shifts obtained even with the high‐affinity control peptides are consistent with the fact that the SH2 domain of STATs only comprises a small proportion (≈100 amino acids) of the endogenous full‐length proteins (between 748 and 793 amino acids for STAT3/4/5a/5b).^[ [25] ^] […] The CETSA experiments were carried out in cell lysates, not in living cells, to account for the putative inability of PPADS and iso‐PPADS to cross the cell membrane owing to their large number of negative charges. […]
as §1, §2

Chain of STAT3 (P40763 whole entry, species assumed, the tested form may be a part): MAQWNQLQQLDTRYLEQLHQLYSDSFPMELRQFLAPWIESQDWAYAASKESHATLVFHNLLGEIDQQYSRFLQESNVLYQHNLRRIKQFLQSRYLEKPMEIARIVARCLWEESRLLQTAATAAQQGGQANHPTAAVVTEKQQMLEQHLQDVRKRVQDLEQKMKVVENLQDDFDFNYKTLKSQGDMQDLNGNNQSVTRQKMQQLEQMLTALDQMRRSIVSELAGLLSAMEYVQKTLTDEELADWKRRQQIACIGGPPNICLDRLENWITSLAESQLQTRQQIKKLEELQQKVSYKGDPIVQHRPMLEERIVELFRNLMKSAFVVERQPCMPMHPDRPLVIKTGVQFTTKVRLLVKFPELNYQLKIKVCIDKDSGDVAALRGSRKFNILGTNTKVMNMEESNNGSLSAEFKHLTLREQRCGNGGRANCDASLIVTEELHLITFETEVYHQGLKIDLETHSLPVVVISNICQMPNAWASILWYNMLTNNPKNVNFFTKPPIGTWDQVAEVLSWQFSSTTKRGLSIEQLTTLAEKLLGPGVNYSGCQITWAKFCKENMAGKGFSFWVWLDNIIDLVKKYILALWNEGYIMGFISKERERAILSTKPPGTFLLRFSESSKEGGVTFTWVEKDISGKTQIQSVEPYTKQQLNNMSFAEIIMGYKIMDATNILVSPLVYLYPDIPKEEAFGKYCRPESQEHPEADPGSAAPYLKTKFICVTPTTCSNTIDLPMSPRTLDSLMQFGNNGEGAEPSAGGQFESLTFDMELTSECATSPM

In the case of `Cc1nc(/N=N/c2ccc(S(=O)(=O)O)cc2S(=O)(=O)O)c(COP(=O)(O)O)c(C=O)c1O` [PPADS, pyridoxalphosphate‐6‐azophenyl‐2',4'‐disulfonic acid], the “increase of the aggregation temperature of STAT4 (ΔT agg)” value (STAT4) is reported as 1.1 °C, the “aggregation temperature of STAT4 (T agg)” value (STAT4; DMSO control 48.9 ± 0.4 °C) is reported as 50.0 ± 0.4 °C and 50.0 °C and the “increase of the aggregation temperature of STAT3 (ΔT agg)” value (STAT3) is reported as 0.57 °C. For the same compound, the “aggregation temperature of STAT3 (T agg)” value (STAT3; DMSO control 51.47 °C) was 52.04 °C.
